# Measurements from US3987052A, “6-Phenyl-4H-s-triazolo[4,3-a][1,4]benzodiazepines” (priority 1969, dated 1976).
# What was measured:
# Format in all cases: in vivo
# mice [1] = assay: Chimney test: ability of mice to back up and out of a vertical glass cylinder within 30 seconds; settings: Mus musculus, ip
# Protocol: (§1) Sedative effects of 8-chloro-1-methyl-6-phenyl-4H-s-triazolo-[4,3-a][1,4]benzodiazepine are shown by the following tests in mice:
# Chimney test: [Med. Exp. 4, 145 (1961)]: The effective intraperitoneal dosage for 50% of mice (ED50) is 0.09 mg./kg. The test determines the ability of mice to back up and out of a vertical glass cylinder within 30 seconds. At the effective dosage, 50% of the mice failed doing it.
# mice [2] = assay: Dish test: mice remaining in Petri dish for more than 3 minutes; settings: Mus musculus
# Protocol: as §1
# Dish test: Mice in Petri dishes (10 cm. diameter, 5 cm. high, partially embedded in wood shavings), climb out in a very short time, when not treated. Mice remaining in the dish for more than 3 minutes indicates tranquilization. ED50 equals the dose of test compound at which 50% of the mice remain in the dish.
# mice [3] = assay: Pedestal test: mice staying on the pedestal for more than 1 minute; settings: Mus musculus
# Protocol: as §1
# Pedestal test: The untreated mouse leaves the pedestal in less than a minute to climb back to the floor of the standard mouse box. Tranquilized mice will stay on the pedestal for more than 1 minute. The ED50 (intraperitoneal administration) is 0.20 mg./kg.; the ED50 (oral administration) is 0.9 mg.kg.
# mice [4] = assay: Nicotine antagonism test (nicotine salicylate 2 mg./kg.); settings: Mus musculus
# Protocol: Nicotine antagonism test: Mice in a group of 6 are injected with the test compound (8-chloro-1-methyl-6-phenyl-4H-s-triazolo[4,3-a][1,4]benzodiazepine). Thirty minutes later the mice including control (untreated) mice are injected with nicotine salicylate (2 mg./kg.). The control mice show overstimulation, i.e., (1) running convulsions followed by (2) tonic extensor fits; followed by (3) death.
# Ni =]nicotine antagonism (3) test
# mice [5] = assay: Antagonism to strychnine (as sulfate), 3 mg./kg. intraperitoneally; settings: Mus musculus, po, 4 h, read-out: effective dosage ED50, antagonism to strychnine
# Protocol: Antagonism to strychnine (as sulfate): The effective dosage ED50 of 8-chloro-1-methyl-6-phenyl-4H-s-triazolo[4,3-a][1,4]benzodiazepine is 1 mg./kg. orally in mice. The test consists in orally administering into groups of 6 mice the test compound, 8-chloro-1-methyl-6-phenyl-4H-s-triazolo[4,3-a][1,4]benzodiazepine, and 30 minutes later 3 mg./kg. strychnine sulfate intraperitoneally. The survivors after 4 hours reflect the activity of the compound as a muscle relaxant and antispasmodic. A dosage of 3 mg./kg. of strychnine sulfate is routinely fatal to all the control mice.
# [6] = intraperitoneal injection, table 1, read-out: ED50 Ch (chimney test)
# [7] = ip, intraperitoneal injection, table 1, read-out: ED50 D (dish test)
# [8] = ip, intraperitoneal injection, table 1, read-out: ED50 P (pedestal test)
# [9] = ip, intraperitoneal injection, table 1, read-out: ED50 Ni (nicotine antagonism (3) test)
SMILES,ED50 (mice [1]; [6]),ED50 (mice [2]; [7]),ED50 (mice [3]; [8]),ED50 (mice [4]; [9]),"ED50 (mice [1]; intraperitoneal, mice, read-out: effective intraperitoneal dosage for 50% of mice (ED50), chimney test)","ED50 (mice [2]; ip, intraperitoneal administration, mice, read-out: ED50, dish test)","ED50 (mice [2]; oral, mice, read-out: oral ED50, dish test)","ED50 (mice [3]; ip, intraperitoneal administration, mice, read-out: ED50, pedestal test)","ED50 (mice [3]; oral administration, mice, read-out: ED50, pedestal test)","ED50 (mice [4]; ip, intraperitoneal, 30 minutes before nicotine salicylate 2 mg./kg., mice, read-out: intraperitoneal dosage that protected 50% of the mice against (2) tonic extensor fits and (3) death (ED50))","ED50 (mice [4]; oral, before nicotine salicylate 2 mg./kg., mice, read-out: oral ED50, nicotine antagonism)",ED50 (mice [5])
"Cc1nnc2n1-c1ccc(C(F)(F)F)cc1C(c1ccccc1)=NC2 [1-methyl-6-phenyl-8-(trifluoromethyl)-4H-s-triazolo[4,3-a][1,4]benzodiazepine]",0.16 mg/kg,0.16 mg/kg,0.22 mg/kg,0.08 mg/kg,,,,,,,,
"CCc1nnc2n1-c1ccc(Cl)cc1C(c1ccccc1)=NC2 [8-Chloro-1-ethyl-6-phenyl-4H-s-triazolo[4,3-a]-[1,4]benzodiazepine]",0.8 mg/kg,0.9 mg/kg,0.9 mg/kg,0.2 mg/kg,,,,,,,,
"Cc1nnc2n1-c1ccc(Cl)cc1C(c1ccccc1Cl)=NC2 [8-Chloro-1-methyl-6-(o-chlorophenyl)-4H-s-triazolo[4,3-a][1,4]benzodiazepin]",0.05 mg/kg,0.028 mg/kg,0.045 mg/kg,0.008 mg/kg,,,,,,,,
"Cc1nnc2n1-c1ccc(Cl)cc1C(c1c(F)cccc1F)=NC2 [8-chloro-1-methyl-6-(2,6-difluorophenyl)-4H-s-triazolo[4,3-a][1,4]benzodiazepine]",0.009 mg/kg,0.016 mg/kg,0.02 mg/kg,0.018 mg/kg,,,,,,,,
"Cc1nnc2n1-c1ccc(Cl)cc1C(c1ccccc1F)=NC2 [8-chloro-1-methyl-6-(o-fluorophenyl)-4H-s-triazolo[4,3-a][1,4]benzodiazepine]",0.056 mg/kg,0.016 mg/kg,0.028 mg/kg,0.009 mg/kg,,,,,,,,
"Cc1nnc2n1-c1ccc(Cl)cc1C(c1ccccc1)=NC2 [8-chloro-1-methyl-6-phenyl-4H-s-triazolo[4,3-a][1,4]benzodiazepine]",,,,,0.09 mg/kg,0.15 mg/kg,0.045 mg/kg,0.2 mg/kg,0.9 mg/kg,0.1 mg/kg,0.04 mg/kg,1 mg/kg
"Clc1ccc2c(c1)C(c1ccccc1)=NCc1nncn1-2 [8-chloro-6-phenyl-4H-s-triazolo[4,3-a][1,4]benzodiazepine]",0.25 mg/kg,0.4 mg/kg,0.7 mg/kg,0.08 mg/kg,,,,,,,,
